Test results as given in US12466813B2, “PRC1 inhibitors and methods of treatment therewith” (The Regents of the University of Michigan, priority 2018, dated 2025).

Biological target: T1, RING1B-BMI1 (Homo sapiens, UniProt Q99496)
T1 sequence (Q99496 1-336): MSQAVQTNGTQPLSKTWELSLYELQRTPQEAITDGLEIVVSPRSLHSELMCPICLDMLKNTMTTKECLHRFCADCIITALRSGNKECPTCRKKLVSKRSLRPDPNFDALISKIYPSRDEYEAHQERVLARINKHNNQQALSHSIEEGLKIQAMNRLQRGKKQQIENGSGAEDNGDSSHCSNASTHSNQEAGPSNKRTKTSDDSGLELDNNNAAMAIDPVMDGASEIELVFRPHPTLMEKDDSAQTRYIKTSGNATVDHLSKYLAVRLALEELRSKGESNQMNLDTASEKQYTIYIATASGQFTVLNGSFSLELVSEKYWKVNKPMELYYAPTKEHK
T1 sequence (P35226 1-326 partner): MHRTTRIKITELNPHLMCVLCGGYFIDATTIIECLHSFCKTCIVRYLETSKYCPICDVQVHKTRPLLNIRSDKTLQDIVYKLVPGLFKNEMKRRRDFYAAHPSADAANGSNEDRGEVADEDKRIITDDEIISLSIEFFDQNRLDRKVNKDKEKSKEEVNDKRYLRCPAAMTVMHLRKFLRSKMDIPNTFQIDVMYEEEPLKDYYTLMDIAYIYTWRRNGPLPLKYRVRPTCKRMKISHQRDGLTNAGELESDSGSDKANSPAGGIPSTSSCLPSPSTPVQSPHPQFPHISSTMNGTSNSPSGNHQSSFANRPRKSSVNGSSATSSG
Assay: KD classes of Table A (direct binding to Ring1B-Bmi1)
Details: class given in Table A
Procedure: Experiments were conducted during development of embodiments herein to develop small molecule inhibitors of PRC1 by targeting the Ring1B-BMI1 E3 ligase. These compounds bind directly to Ring1B-Bmi1 with low-micromolar affinity and inhibit PRC1 in vitro and in cells. […] Experiments were conducted during development of embodiments herein to test COMPOUND 1 in leukemia stem cell models represented by TEX cells (Ref. 22; herein incorporated by reference in its entirety) and M9-ENL1 cells (Ref. 23; herein incorporated by reference in its entirety). […] In some embodiments, COMPOUND 1 and COMPOUND 1 analogs are find use as agents in targeting leukemia and other cancer stem cells.
The compounds listed in Table A have been synthesized and/or tested for activity in inhibiting activity of PRC1 complex, and are within the scope herein.

Row | Compound | Kd [µM]
1 | CC(c1c(-c2cccc3[nH]ccc23)[nH]c(C(=O)O)c1-c1cccc2[nH]ccc12)C(F)F (centres unmarked) [compound 30, 4-(1,1-Difluoropropan-2-yl)-3,5-di(1H-indol-4-yl)-1H-pyrrole-2-carboxylic acid] | < 20
2 | CC(CO)c1c(-c2cccc3[nH]ccc23)[nH]c(C(=O)O)c1-c1cccc2[nH]ccc12 (centres unmarked) [compound 31] | < 20
3 | CC(CF)c1c(-c2cccc3[nH]ccc23)[nH]c(C(=O)O)c1-c1cccc2[nH]ccc12 (centres unmarked) [compound 32] | < 20
4 | CC(C)c1c(-c2cccc3[nH]ccc23)[nH]c(C(=O)O)c1-c1cccc2[nH]ccc12 [compound 33] | < 20
5 | Cc1c[nH]c2cccc(-c3c(C(=O)O)[nH]c(-c4cccc5[nH]ccc45)c3C(C)C)c12 [compound 34] | < 20
6 | CC(C)c1c(-c2cc(F)cc3[nH]ccc23)[nH]c(C(=O)O)c1-c1cccc2[nH]ccc12 [compound 35] | < 20
7 | CC(C)c1c(-c2cc(F)cc3[nH]ccc23)[nH]c(C(=O)O)c1-c1cc(F)cc2[nH]ccc12 [compound 36] | < 20
8 | COc1ccc(-c2c(C(=O)O)[nH]c(-c3cc(F)cc4[nH]ccc34)c2C(C)C)c2cc[nH]c12 [compound 37] | < 20
9 | CC(C)c1c(-c2cc(F)cc3[nH]ccc23)[nH]c(C(=O)O)c1-c1ccc2[nH]ccc2c1 [compound 38] | < 20
10 | COc1cc(-c2c(C(=O)O)[nH]c(-c3cc(F)cc4[nH]ccc34)c2C(C)C)c2cc[nH]c2c1 [compound 39] | < 20
11 | CC(C)c1c(-c2cc(F)cc3[nH]ccc23)[nH]c(C(=O)O)c1-c1cccc2[nH]ncc12 [compound 40] | < 20
12 | CC(C)c1c(-c2cc(F)cc3[nH]ccc23)[nH]c(C(=O)O)c1-c1cc(Cl)cc2[nH]ccc12 [compound 41] | < 20
13 | CCOc1cc(-c2c(C(=O)O)[nH]c(-c3cc(F)cc4[nH]ccc34)c2C(C)C)c2cc[nH]c2c1 [compound 42] | < 20
14 | CC(C)c1c(-c2cc(F)cc3[nH]ccc23)[nH]c(C(=O)O)c1-c1cc(C(F)(F)F)cc2[nH]ccc12 [compound 43] | < 20
15 | CC(C)c1c(-c2cc(F)cc3[nH]ccc23)[nH]c(C(=O)O)c1-c1cccc2c1ccn2CCO [compound 44] | < 20
16 | CCc1cc(-c2c(C(=O)O)[nH]c(-c3cc(F)cc4[nH]ccc34)c2C(C)C)c2cc[nH]c2c1 [compound 45] | < 20
17 | COc1cc(-c2c(C(=O)O)[nH]c(-c3cc(F)cc4[nH]ccc34)c2C(C)C)c2ccn(CC(=O)O)c2c1 [compound 46] | < 20
18 | CC(C)c1c(-c2cc(F)cc3[nH]ccc23)[nH]c(C(=O)O)c1-c1cccc2[nH]c(C(=O)O)cc12 [compound 47] | < 20
19 | CC(C)c1c(-c2cc(F)cc3[nH]ccc23)[nH]c(C(=O)O)c1-c1cc(OC(F)(F)F)cc2[nH]ccc12 [compound 48] | < 20
20 | CC(C)c1c(-c2cccc3[nH]c(C(=O)O)cc23)[nH]c(C(=O)O)c1-c1c(Cl)ccc2[nH]ccc12 [compound 49] | < 20

Row | Compound | Kd [µM]
21 | COc1cc(-c2c(C(=O)O)[nH]c(-c3cc(F)cc4[nH]ccc34)c2C(C)C)c2cc(C(=O)O)[nH]c2c1 [compound 50] | < 20
22 | Cc1cc(-c2c(C(=O)O)[nH]c(-c3cc(F)cc4[nH]ccc34)c2C(C)C)c2cc[nH]c2c1 [compound 51] | < 20
23 | CC(C)c1c(-c2cccc3[nH]c(CO)cc23)[nH]c(C(=O)O)c1-c1c(Cl)ccc2[nH]ccc12 [compound 52] | < 20
24 | CC(C)c1c(-c2cc(F)cc3[nH]ccc23)[nH]c(C(=O)O)c1-c1c(Cl)ccc2[nH]c(C(=O)O)cc12 [compound 53] | < 20
25 | CC(C)c1c(-c2cc(F)cc3[nH]ccc23)[nH]c(C(=O)O)c1-c1cc(C(F)(F)F)cc2c1ccn2CC(=O)O [compound 54] | < 20
26 | CC(C)c1cc(-c2c(C(=O)O)[nH]c(-c3cc(F)cc4[nH]ccc34)c2C(C)C)c2ccn(CC(=O)O)c2c1 [compound 55] | < 20
27 | COc1ccc(-c2c(C(=O)O)[nH]c(-c3cc(F)cc4[nH]ccc34)c2C(C)C)c(Cl)c1 [compound 56] | < 20
28 | COc1cccc(-c2c(C(=O)O)[nH]c(-c3cc(F)cc4[nH]ccc34)c2C(C)C)c1Cl [compound 57, 3-(2-chloro-3-methoxyphenyl)-5-(6-fluoro-1H-indol-4-yl)-4-isopropyl-1H-pyrrole-2-carboxylic acid] | < 20
29 | COc1ccc(-c2c(C(=O)O)[nH]c(-c3cc(F)cc4[nH]ccc34)c2C(C)C)c(F)c1 [compound 58] | < 20
30 | COc1ccc(-c2c(C(=O)O)[nH]c(-c3cc(F)cc4[nH]ccc34)c2C(C)C)c(C)c1 [compound 59] | < 20
31 | CC(C)c1c(-c2cc(F)cc3[nH]ccc23)[nH]c(C(=O)O)c1-c1cc(OCC(=O)O)ccc1Cl [compound 60] | < 20
32 | CC(C)c1c(-c2cc(F)cc3[nH]ccc23)[nH]c(C(=O)O)c1-c1ccc2c(c1)OCCO2 [compound 61] | < 20
33 | CC(C)c1c(-c2cc(F)cc3[nH]ccc23)[nH]c(C(=O)O)c1-c1ccc(Oc2nccs2)cc1 [compound 62] | < 20
34 | CC(C)c1c(-c2cc(F)cc3[nH]ccc23)[nH]c(C(=O)O)c1-c1ccc(Oc2ccncc2)cc1 [compound 63] | < 20
35 | CC(C)c1c(-c2cc(F)cc3[nH]ccc23)[nH]c(C(=O)O)c1-c1cccc(Oc2nccs2)c1 [compound 64] | < 20
36 | CCc1c(-c2cccc3[nH]ccc23)[nH]c(C(=O)O)c1-c1ccccc1Cl [compound 65] | < 20
37 | C#CCCCCC(=O)NCCn1ccc2c(-c3c(C(=O)O)[nH]c(-c4cc(F)cc5[nH]ccc45)c3C(C)C)cccc21 [compound 66] | < 20
38 | C#CCCCCC(=O)NCCc1c[nH]c2cc(F)cc(-c3[nH]c(C(=O)O)c(-c4c(Cl)ccc5[nH]ccc45)c3C(C)C)c12 [compound 67] | < 20
39 | C#CCCCCC(=O)NCCCCCC(=O)NCCc1c[nH]c2cc(F)cc(-c3[nH]c(C(=O)O)c(-c4c(Cl)ccc5[nH]ccc45)c3C(C)C)c12 [compound 68] | < 20
40 | C#CCOCCOCCOCCC(=O)NCCc1c[nH]c2cc(F)cc(-c3[nH]c(C(=O)O)c(-c4c(Cl)ccc5[nH]ccc45)c3C(C)C)c12 [compound 69] | < 20

Row | Compound | Kd [µM]
41 | CC(C)c1c(-c2cc(F)cc3[nH]cc(CCNC(=O)CCCCCNC(=O)c4ccc5c(c4)C(=O)OC54c5ccc(O)cc5Oc5cc(O)ccc54)c23)[nH]c(C(=O)O)c1-c1c(Cl)ccc2[nH]ccc12 [compound 70] | < 20
42 | CCn1c(C(=O)O)c(-c2cc(OC)cc3[nH]ccc23)c(C(C)C)c1-c1cc(F)cc2[nH]ccc12 [compound 71] | < 20
43 | COCCC(=O)NCCc1c[nH]c2cc(F)cc(-c3[nH]c(C(=O)O)c(-c4c(Cl)ccc5[nH]ccc45)c3C(C)C)c12 [compound 72] | < 20
44 | CCC(C)c1c(-c2cccc3[nH]ccc23)[nH]c(C(=O)O)c1-c1cccc2[nH]ccc12 (centres unmarked) [compound 73] | < 20
45 | CC(C)c1c(-c2cc(F)cc3[nH]ccc23)[nH]c(C(=O)O)c1-c1ccnc2[nH]ccc12 [compound 74] | < 20
46 | CC(C)c1c(-c2ccnc3[nH]ccc23)[nH]c(C(=O)O)c1-c1c(Cl)ccc2[nH]ccc12 [compound 75] | < 20
47 | CC(C)c1c(-c2cccc3[nH]ccc23)cn(CC(=O)O)c1-c1cccc2[nH]ccc12 [compound 76] | < 20
48 | CCc1c(-c2cccc3[nH]ccc23)[nH]c(C(=O)O)c1-c1cccc2c1ccn2CCO [compound 77] | 20 to 50
49 | CCc1c(-c2cccc3[nH]ccc23)[nH]c(C(=O)O)c1CC1CCCCC1 [compound 78] | 20 to 50
50 | CCc1c(-c2cccc3[nH]ccc23)[nH]c(C(=O)O)c1Cc1ccccc1 [compound 79] | 20 to 50
51 | CCc1c(-c2cccc3[nH]ccc23)[nH]c(C(=O)O)c1-c1cc(N)ccc1Cl [compound 80] | 20 to 50
52 | CCc1c(-c2cccc3[nH]ccc23)[nH]c(C(=O)O)c1-c1cc([N+](=O)[O-])ccc1Cl [compound 81] | 20 to 50
53 | CCc1c(-c2cccc3[nH]ccc23)[nH]c(C(=O)O)c1-c1ccccc1C(F)(F)F [compound 82] | 20 to 50
54 | CCc1c(-c2cccc3[nH]ccc23)[nH]c(C(=O)O)c1-c1ccccc1C [compound 83] | 20 to 50
55 | CCc1c(-c2cccc3[nH]ccc23)[nH]c(C(=O)O)c1-c1cccc(Cl)c1Cl [compound 84] | 20 to 50
56 | CCc1c(-c2cccc3[nH]ccc23)[nH]c(C(=O)O)c1-c1cccc(OC)c1 [compound 85] | 20 to 50
57 | CCc1c(-c2cccc3[nH]ccc23)[nH]c(C(=O)O)c1-c1cccc(F)c1 [compound 86] | 20 to 50
58 | CCc1c(-c2cccc3[nH]ccc23)[nH]c(C(=O)O)c1-c1ccc(OC)cc1 [compound 87] | 20 to 50
59 | CCc1c(-c2cccc3c2ccn3C)[nH]c(C(=O)O)c1-c1ccccc1Cl [compound 88] | 20 to 50
